14 compounds from BindingDB's records for doi:10.7270/Q2X63KDM (Burnham Center For Chemical Genomics, 2010) can be followed below.

Each structure is given as a SMILES string. Some results are limits rather than exact numbers.

The test addresses Intestinal-type alkaline phosphatase (Homo sapiens, UniProt P09923). The experiment in a line: inhibition of human intestinal alkaline phosphatase – biochemical, dose response (AID 488876).

Sequence of Intestinal-type alkaline phosphatase (P09923 whole entry): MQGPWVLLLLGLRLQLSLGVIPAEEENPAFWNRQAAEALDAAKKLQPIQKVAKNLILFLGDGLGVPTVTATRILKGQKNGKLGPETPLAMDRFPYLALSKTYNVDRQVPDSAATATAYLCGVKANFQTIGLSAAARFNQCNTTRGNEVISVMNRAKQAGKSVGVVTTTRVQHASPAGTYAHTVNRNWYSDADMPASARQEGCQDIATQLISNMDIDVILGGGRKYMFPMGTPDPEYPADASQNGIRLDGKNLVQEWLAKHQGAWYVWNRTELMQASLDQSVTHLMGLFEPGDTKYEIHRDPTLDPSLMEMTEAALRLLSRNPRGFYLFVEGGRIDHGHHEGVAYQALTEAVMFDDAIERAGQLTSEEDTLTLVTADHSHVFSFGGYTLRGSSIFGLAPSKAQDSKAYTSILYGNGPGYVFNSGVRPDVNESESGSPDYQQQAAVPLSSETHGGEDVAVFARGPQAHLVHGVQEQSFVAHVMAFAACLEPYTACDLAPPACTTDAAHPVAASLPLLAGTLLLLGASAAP

In general, IC50 refers to the concentration needed to halve the response being measured. Take `Oc1ccc(C=Nn2c(O)csc2=S)c(O)c1O` [3-[[(E)-[2,3-bis(oxidanyl)-4-oxidanylidene-cyclohexa-2,5-dien-1-ylidene]methyl]amino]-2-sulfanylidene-1,3-thiazolidin-4-one]: the IC50 was over 100 µM.

Turning to `C#CCOCCOCCOCCNc1nc(N2CCN(C(=O)CCCCCCCCCCNC(=O)[C@H]([C@@H](C)CC)n3cc(CCCCN=C(N)N)nn3)CC2)nc(N2CCN(C(=O)CCCCCCCCCCNC(=O)[C@@H]([C@H](C)O)n3cc(C)nn3)CC2)n1` [GT-RI], half-maximal inhibition (IC50) required 86.3 µM. That is a double-digit micromolar value.

As for `O=C1C=CC(C=NNC(=S)Nc2ccccc2[N+](=O)[O-])C=C1O` (centres undefined) [MLS000417596], the IC50 is over 100 µM.

Compound `O=C1C=CC(/C=C/c2nc(O)c([N+](=O)[O-])c(=O)[nH]2)C=C1O` (centres undefined) [SMR000524347] showed an IC50 of 4.34 µM.

For the compound `COc1cc(C=CC(=O)CC(=O)C=Cc2ccc(O)cc2)ccc1O` [demethoxycurcumin], the IC50 is over 100 µM.

In turn, `O=C(Nn1c(O)csc1=S)C(=O)Nn1c(O)csc1=S` [SMR000349781] had a half-inhibitory concentration (IC50) of over 100 µM.

Regarding `COc1cc(C=Nn2c(O)csc2=S)ccc1O` [3-[[(E)-(3-methoxy-4-oxidanylidene-cyclohexa-2,5-dien-1-ylidene)methyl]amino]-2-sulfanylidene-1,3-thiazolidin-4-one], 21.3 µM corresponded to half-maximal inhibition (IC50).

Regarding `Cc1ccc(/C=C2\SC(=S)N(/N=C/C3C=C([N+](=O)[O-])C=CC3=O)C2=O)o1` (centres undefined) [(5Z)-5-[(5-methylfuran-2-yl)methylidene]-3-[[(E)-(3-nitro-6-oxocyclohexa-2,4-dien-1-ylidene)methyl]amino]-2-sulfanylidene-1,3-thiazolidin-4-one], 80 µM corresponded to half-maximal inhibition (IC50). This IC50 lies about 3.8-fold higher than the previous one.

With `NS(=O)(=O)c1cc(C(=O)NNC2=c3ccccc3=NC2=O)ccc1Cl` [2-chloro-5-[[(2-oxoindol-3-yl)amino]carbamoyl]benzenesulfonamide], the IC50 is over 100 µM.

For the compound `Nc1nnc(CC(=O)N/N=C/C2C=C([N+](=O)[O-])C=C(Br)C2=O)s1` (centres undefined) [2-(5-azanyl-1,3,4-thiadiazol-2-yl)-N'-[(E)-(5-bromanyl-3-nitro-6-oxidanylidene-cyclohexa-2,4-dien-1-ylidene)methyl]ethanehydrazide], the IC50 was over 100 µM.

Take `C#CCOCCOCCOCCNc1nc(N2CCN(C(=O)CCCCCCCCCCNC(=O)[C@@H](CCSC)n3cc(CCO)nn3)CC2)nc(N2CCN(C(=O)CCCCCCCCCCNC(=O)[C@H]([C@@H](C)CC)n3cc(CCCCCN)nn3)CC2)n1` [MLS002153719]: the IC50 turned out to be 14.3 µM.

In turn, `C#CCOCCOCCOCCNc1nc(N2CCN(C(=O)CCCCCCCCCCNC(=O)Cn3cc(CCCCCN)nn3)CC2)nc(N2CCN(C(=O)CCCCCCCCCCNC(=O)Cn3cc(C[C@@H](C)O)nn3)CC2)n1` [KG-TG] showed an IC50 of over 100 µM.

`Cc1ccc(Cl)c2c1NC(=O)/C2=C1/NC(=S)NC1=O` returned a half-maximal inhibitory concentration (IC50) of over 100 µM.

Compound `CC1NON=C1C(=O)NN=CC1=CC(=O)C(=O)C=C1` (centres undefined) [4-Methyl-furazan-3-carboxylic acid (3,4-dihydroxy-benzylidene)-hydrazide] returned an IC50 of 14 µM.
